“Also recorded” adds a separate entry of the source.
Tests used:
[1] = tested on: mTORC1; assay: p-S6 staining of SC-beta cells (mTORC1 activity); format: cell-based, human
Protocol: (§1) The hPSC line HUES8 (NIH human embryonic stem cell registry #0021) was used for all experiments. Undifferentiated HUES8 cells were maintained in supplemented mTeSR1 medium (StemCell Technologies) in 500 ml spinner flasks (Coming) set at a 70 rpm rotation rate in a 37° C. 5% CO2 incubator. Directed differentiation into SC-β cells was conducted as described previously with minor modifications. Briefly, 150 million cells were seeded in 300 ml mTeSR1 +10 μM ROCK Inhibitor Y27632, fed with mTeSR1 48 h later, and 72 h later stepwise differentiation stages were induced by the following treatments: DE stage: 24 h in S1 medium +100 ng/ml ActivinA +[…] CHIR99021, followed by 48 h in the same medium without CHIR99021. PGT stage: 72 h in S2 medium +50 ng/ml KGF. PP1 stage: 24 h in S3 medium +50 ng/ml KGF +0.25 μM Sant1 +2 μM Retinoic acid (RA) +500 nM PDBU +10 μM Y27632 +200 nM LDN193189, followed by 24 h in the same medium without LDN193189. […]
(§2) Cells were then resuspended in perm/wash with primary antibodies and incubated at 4° C. overnight. […] Cells were then washed 3 times in perm/wash solution and finally resuspended in 500-700 μl, filtered through a 40 μm nylon mash into flow cytometry tubes (BD Falcon; 352235), and analyzed using the LSR-II flow cytometer (BD Biosciences) with at least 30,000 events recorded. […]

[2] = tested on: SC-beta cells; assay: Glucose stimulated insulin secretion (GSIS) assay of SC-beta cells; format: cell-based, human
Protocol: as §1, with “LDN193189. PP2 stage: 6 days in S3 medium +50 ng/ml KGF +0.25 uM Sant1 +0.1 μM Retinoic acid (RA) +10 μM Y27632 +5 ng/ml ActivinA.” for “LDN193189.”
Islets were isolated from whole pancreata using Collagenase P (Roche) injected to the pancreatic duct followed by Histopaque gradient (Sigma). […] Insulin levels were measured by ELISA (Alpco). […] Normalization was done to β-cell number in each sample (pooled from 4 or more mice) scored by FACS following staining for insulin.

[3] = tested on: mTORC1; assay: p-S6 FACS staining of beta cells in isolated human islets (mTORC1 activation); format: cell-based; conditions: for effect on mTORC1 activity (p-S6) in mature beta cells: human islets, 30 minute incubation in RPMI
Excerpt: Insulin-expressing beta cells appear around embryonic day 13.5 (E13.5) in mice and week 8 and 9 post-conception in humans (Pan and Wright, 2011; Slack, 1995), but glucose-stimulated insulin secretion (GSIS) has been observed only days after birth (Blum et al., 2012). Since a major change from embryonic to postnatal physiology is nutrient consumption, it was predicted that nutrients and nutrient sensing by mTORC1 could have a role in the transition from immature to mature insulin secretion by beta cells. To explore that, the nutrient sensitivity and dynamics of mTORC1 in isolated mature human and mouse islets was first examined.
(§3) Differentiated cell clusters or islets were dispersed into single-cell suspension by incubation in TrypLE Express (Invitrogen) at 37° C. until clusters dissociated to single cells upon mixing by pipetting gently up and down (typically 10-15 min). Cells were spun down for 3 min at 1000 rpm, washed once in PBS (1 mL) and transferred to a 1.7 ml microcentrifuge tube (Bioscience; 11510). Cells were resuspended in perm/fix solution and incubated for 10 min (BD 554714). Cells were then washed once in perm/wash for 15 min (BD 554714).
Cells were then resuspended in perm/wash with primary antibodies and incubated at 4° C. overnight. Primary antibodies, diluted 1:300 unless otherwise noted: Mouse anti-Nkx6.1, rat anti-insulin (pro-)IC-peptide, mouse anti-glucagon, rabbit anti-phospho-S6 Ribosomal Protein (Ser240/244). Cells were washed twice in blocking buffer and then incubated in perm/wash buffer with secondary antibodies for 2 hr (protected from light). Secondary antibodies conjugated to Alexa Fluor 405, 488 or 647 (Life Technologies) were used to visualize primary antibodies. Cells were then washed 3 times in perm/wash solution and finally resuspended in 500-700 μl, filtered through a 40 μm nylon mash into flow cytometry tubes (BD Falcon; 352235), and analyzed using the LSR-II flow cytometer (BD Biosciences) with at least 30,000 events recorded. Analysis of the results was performed using FlowJo software. […]

[4] = tested on: mTORC1; assay: p-S6 FACS staining of beta cells in isolated mouse islets (mTORC1 activation); format: cell-based
Protocol: as §3
as §2, with “overnight. Primary antibodies, diluted 1:300 unless otherwise noted: Mouse anti-Nkx6.1, rat anti-insulin (pro-)IC-peptide, mouse anti-glucagon, rabbit anti-phospho-S6 Ribosomal Protein (Ser240/244).” for “overnight.”
For flow cytometry, mouse islets were dissociated into a single-cell suspension with trypsin/EDTA treatment for 5 minutes at 37° C., followed by treatment with a cell fixation and permeabilization solution (BD Pharmingen). Stained cells were analyzed on a MACSQuant Analyzer (DAKO). […]

[5] = tested on: mTORC1; assay: p-S6 immunostaining of kidney capsule transplants of SC-beta cells in mice injected with nutrients; format: in vivo; conditions: two months after transplantation, fasted recipient mouse, injection
Protocol: Having insight into the nutrient sensitivity of mTORC1 in immature and mature beta cells, the next question was whether changing the environment of the SC-beta cells would change mTORC1 sensitivity to nutrients and its dynamics (FIG. 3A). SC-beta cells were collected from the final stage of the differentiation protocol and transplanted into mice for a period of two months, until reaching a stable functional state. […] All animal experiments were performed in accordance with Harvard University […] Animal Care and Use Committee regulations. Cell transplantations into immunodeficient SCID-Beige mice (Jackson Laboratory) were conducted as described previously with minor modifications. SC-beta cell clusters were resuspended in RPMI-1640 medium (Life Technologies; 11875-093), aliquoted into PCR tubes and kept on ice until loading into a catheter for cell delivery under the mouse kidney capsule. Mice were anesthetized with 0.5 ml/25 g 1.25% Avertin/body weight, and the left […] kidney site was shaved and disinfected with betadine and alcohol. A 1 cm incision was made to expose the kidney, followed by insertion of the catheter needle and injection of the cell clusters. […] Wound clips were removed 14 days post-surgery and mice were monitored twice a week. […]

[6] = tested on: mTORC1; assay: p-S6 immunostaining of pancreatic islets of fasted mice injected with nutrients; format: in vivo, mouse; conditions: overnight fasted mice, injection
Protocol: To assess this, mTORC1 activation was analyzed in the islets of fasted mice upon injection with glucose and/or leucine. […] Alpha cells activate the pathway in the presence of amino acids (likely supplied from autophagy) and the absence of glucose (e.g., during fasting), whereas beta cells activate mTORC1 merely following glucose consumption and insulin secretion during feeding (FIG. 1H).
To test the nutrient sensitivity of mTORC1 in beta cells in vivo, glucose was injected into neonates and their pancreata was dissected.
Tissue processing for tissue section staining was performed as previously described {Nir, 2007 #3232}, using the following antibodies: insulin (DakoCytomation), Ki67 (NeoMarkers RM9106S0), Pdx1 (gift from Christopher Wright, Vanderbilt University), Nkx6.1 (β-cell Biology Consortium), Chga (Novus NB120-15160) human p16 (Abcam ab108349 and BD Pharmingen 551153), p21 (Santa Cruz Biotechnology sc-397), Lamp2a (Abcam ab18528), pS6 (Cell Signaling 5364), E-cadherin (BD Pharmingen 610182), Atp5a (Abcam ab14748), Cox17 (Novus NBP1-19696) and Ndufb (Sigma-Aldrich HPA005640). Secondary antibodies were from Jackson ImmunoResearch Laboratories. […] To calculate cell size on tissue sections, the circumference of E-Cadherin-stained cells was determined using Image J Software. >100 cells from 6 mice were scored for each group. […]

**Q.** How did the “effect on enhanced mTORC1 signaling (phosphorylation of p-S6) in nonresponsive SC-beta cells” value ([1]; glucose-nonresponsive SC-beta cells) turn out when `CCC(=O)N1CCN(c2ccc(-n3c(=O)ccc4cnc5ccc(-c6cnc7ccccc7c6)cc5c43)cc2C(F)(F)F)CC1` [Torin1] was run?
**A.** Its value is “repressed”.

**Q.** What about the “effect on mTORC1 activity (p-S6) of SC-beta cells cultured in a high nutrient environment” value ([1]; rich RPMI media) of the same molecule?
**A.** Its value is “repressed”.

**Q.** What about the “GSIS of SC-beta cells grown in indicated conditions” value ([2]; low (2.8 mM) and high (16.7 mM) glucose for 1 h) of the same molecule?
**A.** The value was “increases their GSIS”.

**Q.** And the “insulin secretion in dynamic GSIS assay” value ([2]; nonresponsive SC-beta cells treated for 48 hours, low 2.8 mM, high 16.7 mM glucose)?
**A.** Its value is “induced insulin secretion in response to glucose”.

**Q.** And the “effect on mTORC1 activity (p-S6) in mature beta cells” value (“effect … (p-S6) in mature beta cells” below) [3]?
**A.** Its value is “inhibited”.

**Q.** Which “effect on mTORC1 activation (p-S6) in immature beta cells from mice of indicated age” value ([4]; RPMI with glucose and amino acids, 30 minute incubation) does the source give for `CC1=NS(=O)(=O)c2cc(Cl)ccc2N1` [diazoxide] here?
**A.** Its value is “inhibits mTORC1 activation only at P5; also recorded: does not affect mTORC1 activation”.

**Q.** What about the “effect … (p-S6) in mature beta cells” value [3] of the same molecule?
**A.** Its value is “inhibits mTORC1 activation; also recorded: dramatically reduces mTORC1 activity in beta cells”.

**Q.** How did the “mTORC1 pathway activation (p-S6) in transplanted SC-beta cells” value [5] turn out when `CC(C)C[C@H](N)C(=O)O` [leucine] was run?
**A.** Its value is “remains inactive”.

**Q.** What about the “mTORC1 activation (p-S6) in beta cells of adult mice” value [6] of the same molecule?
**A.** The value was “not sufficient to activate the pathway”.

**Q.** What about the “effect … (p-S6) in mature beta cells” value [3] of the same molecule?
**A.** Its value is “amplifies the response to glucose in beta cells; also recorded: sufficient to fully activate the beta cell mTORC1 pathway in the presence of glucose”.

**Q.** Which results are given for Exendin-4?
**A.** effect on mTORC1 activity (p-S6) in mature beta cells [3]: increased; effect on mTORC1 activity (p-S6) in mature beta cells ([3]; listed as exendin4): strongly activate mTORC1 in beta cells; effect on mTORC1 activity suppressed by diazoxide in beta cells ([3]; in the presence of diazoxide, glucose and amino acids): rescued

**Q.** Which results are given for insulin?
**A.** effect on mTORC1 activation (p-S6) in mouse beta cells ([4]; mouse islets, 30 minutes incubation in RPMI with indicated nutrients): do not affect mTORC1 activation in beta cells; effect on mTORC1 activity (p-S6) in mature beta cells [3]: not mimicked; also recorded: neither stimulation with insulin nor stimulation with insulin and amino acids was able to activate mTORC1 in beta cells
